{
  "source": "patent US9340590B2",
  "about": "(priority 2011, dated 2016)",
  "key": {"[1]": {"biological_target": "hNav1.5 (Homo sapiens, UniProt Q14524)", "sequence (Q14524 whole entry, looked up)": "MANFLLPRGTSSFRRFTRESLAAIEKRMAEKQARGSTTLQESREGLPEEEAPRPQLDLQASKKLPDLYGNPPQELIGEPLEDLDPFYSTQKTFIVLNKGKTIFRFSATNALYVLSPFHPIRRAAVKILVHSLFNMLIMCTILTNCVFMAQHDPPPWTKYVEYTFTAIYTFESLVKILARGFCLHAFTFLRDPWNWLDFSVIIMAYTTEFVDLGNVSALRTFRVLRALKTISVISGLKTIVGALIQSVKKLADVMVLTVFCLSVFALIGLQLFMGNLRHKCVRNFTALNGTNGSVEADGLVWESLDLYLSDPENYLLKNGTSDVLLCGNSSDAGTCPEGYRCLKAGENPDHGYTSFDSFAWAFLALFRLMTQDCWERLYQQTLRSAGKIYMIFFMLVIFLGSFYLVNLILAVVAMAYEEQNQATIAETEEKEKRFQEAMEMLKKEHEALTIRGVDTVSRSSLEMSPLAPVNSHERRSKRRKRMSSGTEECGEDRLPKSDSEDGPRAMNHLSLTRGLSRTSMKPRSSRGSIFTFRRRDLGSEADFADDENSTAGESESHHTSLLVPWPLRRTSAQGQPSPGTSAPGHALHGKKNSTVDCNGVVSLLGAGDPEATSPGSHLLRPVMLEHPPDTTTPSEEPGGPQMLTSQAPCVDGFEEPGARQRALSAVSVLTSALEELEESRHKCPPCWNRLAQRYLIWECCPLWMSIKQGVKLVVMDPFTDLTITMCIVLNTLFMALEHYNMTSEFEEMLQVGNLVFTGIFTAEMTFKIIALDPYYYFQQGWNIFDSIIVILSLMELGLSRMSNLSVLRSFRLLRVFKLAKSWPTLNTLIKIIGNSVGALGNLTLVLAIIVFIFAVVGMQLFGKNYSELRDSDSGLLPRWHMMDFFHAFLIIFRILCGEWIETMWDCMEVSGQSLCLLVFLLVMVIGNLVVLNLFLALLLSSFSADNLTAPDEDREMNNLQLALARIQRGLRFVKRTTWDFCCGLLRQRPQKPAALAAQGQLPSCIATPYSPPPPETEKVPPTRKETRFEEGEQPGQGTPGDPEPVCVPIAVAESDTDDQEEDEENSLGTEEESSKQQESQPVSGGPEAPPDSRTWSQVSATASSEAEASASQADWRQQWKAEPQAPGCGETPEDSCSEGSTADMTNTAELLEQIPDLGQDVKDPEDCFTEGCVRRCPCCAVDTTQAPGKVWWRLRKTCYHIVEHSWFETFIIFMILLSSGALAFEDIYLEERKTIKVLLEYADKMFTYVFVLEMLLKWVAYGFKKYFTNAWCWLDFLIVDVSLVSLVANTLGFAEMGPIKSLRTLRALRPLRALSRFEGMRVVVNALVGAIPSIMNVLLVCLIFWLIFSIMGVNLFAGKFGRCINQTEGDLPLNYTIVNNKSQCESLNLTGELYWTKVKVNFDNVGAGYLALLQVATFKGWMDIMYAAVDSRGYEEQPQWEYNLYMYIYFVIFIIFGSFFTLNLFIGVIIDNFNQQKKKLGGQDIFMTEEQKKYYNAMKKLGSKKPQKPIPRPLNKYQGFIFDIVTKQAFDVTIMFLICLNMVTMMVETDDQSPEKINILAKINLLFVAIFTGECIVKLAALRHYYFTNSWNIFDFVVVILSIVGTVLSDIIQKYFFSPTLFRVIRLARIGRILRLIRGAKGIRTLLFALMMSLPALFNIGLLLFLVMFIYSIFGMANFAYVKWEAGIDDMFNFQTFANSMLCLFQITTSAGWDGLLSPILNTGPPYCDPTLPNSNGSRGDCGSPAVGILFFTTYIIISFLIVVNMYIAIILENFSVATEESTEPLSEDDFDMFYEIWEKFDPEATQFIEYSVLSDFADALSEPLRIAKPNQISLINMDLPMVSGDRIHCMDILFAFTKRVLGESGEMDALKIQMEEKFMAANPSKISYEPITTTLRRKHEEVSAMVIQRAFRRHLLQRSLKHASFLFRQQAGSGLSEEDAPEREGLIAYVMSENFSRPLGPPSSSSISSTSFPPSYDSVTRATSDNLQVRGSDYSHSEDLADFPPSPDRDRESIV", "experiment": "cell-based"}, "[2]": {"biological_target": "hNav1.3 (Homo sapiens, UniProt Q9NY46)", "sequence (Q9NY46 whole entry, looked up)": "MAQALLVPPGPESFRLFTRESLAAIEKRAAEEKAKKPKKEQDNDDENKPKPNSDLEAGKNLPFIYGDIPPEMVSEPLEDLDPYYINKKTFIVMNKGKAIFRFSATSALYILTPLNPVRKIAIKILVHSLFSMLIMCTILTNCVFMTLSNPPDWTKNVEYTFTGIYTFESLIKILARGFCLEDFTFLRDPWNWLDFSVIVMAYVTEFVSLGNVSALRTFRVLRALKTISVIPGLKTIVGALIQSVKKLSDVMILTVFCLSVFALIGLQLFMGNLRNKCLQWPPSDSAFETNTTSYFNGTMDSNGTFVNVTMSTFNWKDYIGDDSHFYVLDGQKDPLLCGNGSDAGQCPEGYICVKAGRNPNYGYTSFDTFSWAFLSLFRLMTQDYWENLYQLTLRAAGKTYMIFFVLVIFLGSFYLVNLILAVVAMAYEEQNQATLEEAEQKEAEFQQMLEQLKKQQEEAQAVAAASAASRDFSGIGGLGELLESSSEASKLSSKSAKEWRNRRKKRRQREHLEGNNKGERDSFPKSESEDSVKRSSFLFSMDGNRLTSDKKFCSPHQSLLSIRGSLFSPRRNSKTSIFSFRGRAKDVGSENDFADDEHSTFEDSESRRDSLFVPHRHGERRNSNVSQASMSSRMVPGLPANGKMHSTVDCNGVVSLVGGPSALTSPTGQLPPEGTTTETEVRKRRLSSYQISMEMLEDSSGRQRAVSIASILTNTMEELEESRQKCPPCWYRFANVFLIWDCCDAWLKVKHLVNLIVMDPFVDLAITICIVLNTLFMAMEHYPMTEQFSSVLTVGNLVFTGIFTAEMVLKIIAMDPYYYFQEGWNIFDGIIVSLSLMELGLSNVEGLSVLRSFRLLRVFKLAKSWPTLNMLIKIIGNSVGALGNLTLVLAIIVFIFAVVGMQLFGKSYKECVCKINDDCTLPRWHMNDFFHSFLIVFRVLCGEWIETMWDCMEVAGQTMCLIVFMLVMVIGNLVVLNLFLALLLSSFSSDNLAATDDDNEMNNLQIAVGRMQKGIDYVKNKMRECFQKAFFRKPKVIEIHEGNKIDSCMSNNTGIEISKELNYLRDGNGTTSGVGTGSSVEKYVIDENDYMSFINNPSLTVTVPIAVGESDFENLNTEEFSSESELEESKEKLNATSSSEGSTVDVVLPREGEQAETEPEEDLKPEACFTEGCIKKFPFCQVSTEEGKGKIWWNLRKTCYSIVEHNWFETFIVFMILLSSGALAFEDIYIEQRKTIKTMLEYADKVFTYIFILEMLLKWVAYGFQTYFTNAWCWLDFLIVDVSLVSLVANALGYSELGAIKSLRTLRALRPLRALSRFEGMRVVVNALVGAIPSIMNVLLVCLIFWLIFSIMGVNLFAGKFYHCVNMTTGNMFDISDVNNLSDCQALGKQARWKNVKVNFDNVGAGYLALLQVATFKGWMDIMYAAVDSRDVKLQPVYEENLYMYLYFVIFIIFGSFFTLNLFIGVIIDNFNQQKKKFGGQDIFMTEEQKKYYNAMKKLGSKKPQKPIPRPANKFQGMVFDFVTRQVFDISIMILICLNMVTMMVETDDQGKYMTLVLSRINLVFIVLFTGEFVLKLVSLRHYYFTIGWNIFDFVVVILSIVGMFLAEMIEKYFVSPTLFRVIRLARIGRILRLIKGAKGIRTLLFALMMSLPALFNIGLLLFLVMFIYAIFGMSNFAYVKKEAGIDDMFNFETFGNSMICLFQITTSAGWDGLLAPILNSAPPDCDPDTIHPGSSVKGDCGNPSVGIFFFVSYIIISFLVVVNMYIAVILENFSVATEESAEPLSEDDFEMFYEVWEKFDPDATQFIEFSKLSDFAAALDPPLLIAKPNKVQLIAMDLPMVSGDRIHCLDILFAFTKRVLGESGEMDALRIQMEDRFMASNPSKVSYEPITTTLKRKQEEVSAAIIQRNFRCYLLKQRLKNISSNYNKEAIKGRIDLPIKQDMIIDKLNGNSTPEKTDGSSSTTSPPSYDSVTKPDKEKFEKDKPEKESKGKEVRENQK", "experiment": "cell-based", "details": "IonWorks Quattro, read-out: IWQ Use Nav1.3"}, "[3]": {"details": "clamped to −110 mV, depolarized to −10 mV, 5 min after compound, n=2"}},
  "note": "Like-named read-outs stand apart in the source and are kept apart here. Positions of bridges follow the written chain, without caps; N, C: chain ends. Residues, ends and D or L forms follow the SMILES beside them.",
  "data": [
    {"compound": "CC[C@H](C)[C@@H]1NC(=O)[C@@H]2CSSC[C@@H]3NC(=O)[C@H](C(C)C)NC(=O)[C@H](CC(C)C)NC(=O)[C@H](CC(N)=O)NC(=O)[C@@H]4CCCN4C(=O)[C@H](CCCNC(=N)N)NC(=O)[C@H](CSSC[C@H](NC(=O)[C@@H](N)CC(=O)O)C(=O)N[C@@H](CC(C)C)C(=O)NCC(=O)N[C@@H](Cc4ccccc4)C(=O)N[C@@H](CCSC)C(=O)N[C@@H](CCCNC(=N)N)C(=O)N[C@@H](CCCCN)C(=O)N2)NC(=O)[C@H](CSSC[C@@H](C(=O)N[C@@H](CCCCN)C(=O)N[C@@H](Cc2ccc(O)cc2)C(=O)N[C@H](C(=O)N[C@@H](Cc2ccccc2)C(N)=O)C(C)C)NC(=O)[C@H](Cc2c[nH]c4ccccc24)NC(=O)[C@H](CCCCN)NC(=O)[C@H](Cc2c[nH]cn2)NC(=O)[C@H](Cc2c[nH]cn2)NC(=O)[C@H](CCCNC(=N)N)NC(=O)[C@H](CO)NC3=O)NC(=O)[C@H](CCCCN)NC(=O)[C@H](CC(=O)O)NC(=O)[C@H](CC(N)=O)NC(=O)[C@H](CC(=O)O)NC(=O)[C@@H]2CCCN2C1=O", "note": "[compound 337] (H-DCLGFMRKCIPDNDKCCRPNLVCSRHHKWCKYVF-NH2; disulfide 2-17, 9-23, 16-30)", "values": [
      {"measurement": "IC50", "setting": "[1]; Table 22, IonWorks Quattro, use, […], read-out: IWQ Use Nav1.5", "result": 4.52, "unit": "µM"}
    ]},
    {"compound": "CC[C@H](C)[C@@H]1NC(=O)[C@@H]2CSSC[C@@H]3NC(=O)[C@H](C(C)C)NC(=O)[C@H](CC(C)C)NC(=O)[C@H](CC(N)=O)NC(=O)[C@@H]4CCCN4C(=O)[C@H](CCCNC(=N)N)NC(=O)[C@H](CSSC[C@H](NC(=O)[C@@H](N)CC(=O)O)C(=O)N[C@@H](CC(C)C)C(=O)N[C@@H](C)C(=O)N[C@@H](Cc4ccccc4)C(=O)N[C@@H](CCSC)C(=O)N[C@@H](CCCNC(=N)N)C(=O)N[C@@H](CCCCN)C(=O)N2)NC(=O)[C@H](CSSC[C@@H](C(=O)N[C@@H](CCCCN)C(=O)N[C@@H](Cc2ccc(O)cc2)C(=O)N[C@H](C(=O)N[C@@H](Cc2ccccc2)C(N)=O)C(C)C)NC(=O)[C@H](Cc2c[nH]c4ccccc24)NC(=O)[C@H](CCCCN)NC(=O)[C@H](Cc2cnc[nH]2)NC(=O)[C@H]([C@@H](C)O)NC(=O)[C@H](CCCNC(=N)N)NC(=O)[C@H](CO)NC3=O)NC(=O)[C@H](CCCCN)NC(=O)[C@H](CC(=O)O)NC(=O)[C@H](CC(N)=O)NC(=O)[C@H](CC(=O)O)NC(=O)[C@@H]2CCCN2C1=O", "note": "[SEQ ID NO: 141] (H-DCLAFMRKCIPDNDKCCRPNLVCSRTHKWCKYVF-NH2; disulfide 2-17, 9-23, 16-30)", "values": [
      {"measurement": "IC50", "setting": "[1]; IWQ Use Nav1.5", "result": 11.3, "unit": "µM"},
      {"measurement": "IC50", "setting": "[2]; [3]", "result": 0.21, "unit": "µM"}
    ]},
    {"compound": "CC[C@H](C)[C@@H]1NC(=O)[C@@H]2CSSC[C@@H]3NC(=O)[C@H](C(C)C)NC(=O)[C@H](CC(C)C)NC(=O)[C@H](CC(N)=O)NC(=O)[C@@H]4CCCN4C(=O)[C@H](CCCNC(=N)N)NC(=O)[C@H](CSSC[C@H](NC(=O)[C@H](C)N)C(=O)N[C@@H](CC(C)C)C(=O)NCC(=O)N[C@@H](Cc4ccccc4)C(=O)N[C@@H](CCSC)C(=O)N[C@@H](CCCNC(=N)N)C(=O)N[C@@H](CCCCN)C(=O)N2)NC(=O)[C@H](CSSC[C@@H](C(=O)N[C@@H](CCCCN)C(=O)N[C@@H](Cc2ccc(O)cc2)C(=O)N[C@H](C(=O)N[C@@H](Cc2ccccc2)C(N)=O)C(C)C)NC(=O)[C@H](Cc2c[nH]c4ccccc24)NC(=O)[C@H](CCCCN)NC(=O)[C@H](Cc2cnc[nH]2)NC(=O)[C@H]([C@@H](C)O)NC(=O)[C@H](CCCNC(=N)N)NC(=O)[C@H](CO)NC3=O)NC(=O)[C@H](CCCCN)NC(=O)[C@H](CC(=O)O)NC(=O)[C@H](CC(N)=O)NC(=O)[C@H](CC(=O)O)NC(=O)[C@@H]2CCCN2C1=O", "note": "[SEQ ID NO: 20] (H-ACLGFMRKCIPDNDKCCRPNLVCSRTHKWCKYVF-NH2; disulfide 2-17, 9-23, 16-30)", "values": [
      {"measurement": "IC50", "setting": "[1]; IonWorks Quattro, clamped to −110 mV, depolarized to −10 mV, 5 min after compound, n=2, read-out: IWQ Use Nav1.5", "result": 9.86, "unit": "µM"},
      {"measurement": "IC50", "setting": "[2]; [3]", "result": 0.08, "unit": "µM"}
    ]},
    {"compound": "CC[C@H](C)[C@@H]1NC(=O)[C@@H]2CSSC[C@@H]3NC(=O)[C@H](C(C)C)NC(=O)[C@H](CC(C)C)NC(=O)[C@H](CC(N)=O)NC(=O)[C@@H]4CCCN4C(=O)[C@H](CCCNC(=N)N)NC(=O)[C@H](CSSC[C@H](NC(=O)[C@@H](N)CC(=O)O)C(=O)N[C@@H](CC(C)C)C(=O)NCC(=O)N[C@@H](Cc4ccccc4)C(=O)N[C@@H](CCSC)C(=O)N[C@@H](CCCNC(=N)N)C(=O)N[C@@H](CCC(=O)O)C(=O)N2)NC(=O)[C@H](CSSC[C@@H](C(=O)N[C@@H](CCCCN)C(=O)N[C@@H](Cc2ccc(O)cc2)C(=O)N[C@H](C(=O)N[C@@H](Cc2ccccc2)C(N)=O)C(C)C)NC(=O)[C@H](Cc2c[nH]c4ccccc24)NC(=O)[C@H](CCCCN)NC(=O)[C@H](Cc2cnc[nH]2)NC(=O)[C@H]([C@@H](C)O)NC(=O)[C@H](CCCNC(=N)N)NC(=O)[C@H](CO)NC3=O)NC(=O)[C@H](CCCCN)NC(=O)[C@H](CC(=O)O)NC(=O)[C@H](CC(N)=O)NC(=O)[C@H](CC(=O)O)NC(=O)[C@@H]2CCCN2C1=O", "note": "[[Glu8]GpTx-1(1-34)] (H-DCLGFMRECIPDNDKCCRPNLVCSRTHKWCKYVF-NH2; disulfide 2-17, 9-23, 16-30)", "values": [
      {"measurement": "IC50", "setting": "[1]; IWQ Use Nav1.5 (μM)", "result": 24.9, "unit": "µM"},
      {"measurement": "IC50", "setting": "[2]; use-dependent block, hNav1.3", "result": 1.36, "unit": "µM"}
    ]},
    {"compound": "CC[C@H](C)[C@@H]1NC(=O)[C@@H]2CSSC[C@@H]3NC(=O)[C@H](C(C)C)NC(=O)[C@H](CC(C)C)NC(=O)[C@H](CC(N)=O)NC(=O)[C@@H]4CCCN4C(=O)[C@H](CCCNC(=N)N)NC(=O)[C@H](CSSC[C@H](NC(=O)[C@@H](N)CCCCN)C(=O)N[C@@H](CC(C)C)C(=O)NCC(=O)N[C@@H](Cc4ccccc4)C(=O)N[C@@H](CCSC)C(=O)N[C@@H](CCCNC(=N)N)C(=O)N[C@@H](CCCCN)C(=O)N2)NC(=O)[C@H](CSSC[C@@H](C(=O)N[C@@H](CCCCN)C(=O)N[C@@H](Cc2ccc(O)cc2)C(=O)N[C@H](C(=O)N[C@@H](Cc2ccccc2)C(N)=O)C(C)C)NC(=O)[C@H](Cc2c[nH]c4ccccc24)NC(=O)[C@H](CCCCN)NC(=O)[C@H](Cc2cnc[nH]2)NC(=O)[C@H]([C@@H](C)O)NC(=O)[C@H](CCCNC(=N)N)NC(=O)[C@H](CO)NC3=O)NC(=O)[C@H](CCCCN)NC(=O)[C@H](CC(=O)O)NC(=O)[C@H](CC(N)=O)NC(=O)[C@H](CC(=O)O)NC(=O)[C@@H]2CCCN2C1=O", "note": "[SEQ ID NO: 37] (H-KCLGFMRKCIPDNDKCCRPNLVCSRTHKWCKYVF-NH2; disulfide 2-17, 9-23, 16-30)", "values": [
      {"measurement": "IC50", "setting": "[1]; IWQ Use Nav1.5", "result": 7.29, "unit": "µM"},
      {"measurement": "IC50", "setting": "[2]; [3]", "result": 0.07, "unit": "µM"}
    ]},
    {"compound": "CC[C@H](C)[C@@H]1NC(=O)[C@@H]2CSSC[C@@H]3NC(=O)[C@H](C(C)C)NC(=O)[C@H](CC(C)C)NC(=O)[C@H](CC(N)=O)NC(=O)[C@@H]4CCCN4C(=O)[C@H](CCCNC(=N)N)NC(=O)[C@H](CSSC[C@H](NC(=O)[C@@H](N)CC(=O)O)C(=O)N[C@@H](CC(C)C)C(=O)NCC(=O)N[C@@H](Cc4ccccc4)C(=O)N[C@@H](CCSC)C(=O)N[C@@H](CCCNC(=N)N)C(=O)N[C@@H](CCCCN)C(=O)N2)NC(=O)[C@H](CSSC[C@@H](C(=O)N[C@@H](CCCCN)C(=O)N[C@@H](Cc2ccc(O)cc2)C(=O)N[C@H](C(=O)N[C@H](Cc2ccccc2)C(N)=O)C(C)C)NC(=O)[C@H](Cc2c[nH]c4ccccc24)NC(=O)[C@H](CCCCN)NC(=O)[C@H](Cc2c[nH]cn2)NC(=O)[C@H]([C@@H](C)O)NC(=O)[C@H](CCCNC(=N)N)NC(=O)[C@H](CO)NC3=O)NC(=O)[C@H](CCCCN)NC(=O)[C@H](CC(=O)O)NC(=O)[C@H](CC(N)=O)NC(=O)[C@H](CC(=O)O)NC(=O)[C@@H]2CCCN2C1=O", "note": "[compound 404]", "values": [
      {"measurement": "IC50", "setting": "[1]; IWQ Use Nav1.5 (μM)", "result": 20.7, "unit": "µM"}
    ]},
    {"compound": "CC[C@H](C)[C@@H]1NC(=O)[C@@H]2CSSC[C@@H]3NC(=O)[C@H](C(C)C)NC(=O)[C@H](CC(C)C)NC(=O)[C@H](CC(N)=O)NC(=O)[C@@H]4CCCN4C(=O)[C@H](CCCNC(=N)N)NC(=O)[C@H](CSSC[C@H](NC(=O)[C@@H](N)CC(=O)O)C(=O)N[C@@H](CC(C)C)C(=O)NCC(=O)N[C@@H](C)C(=O)N[C@@H](CCSC)C(=O)N[C@@H](CCCNC(=N)N)C(=O)N[C@@H](CCCCN)C(=O)N2)NC(=O)[C@H](CSSC[C@@H](C(=O)N[C@@H](CCCCN)C(=O)N[C@@H](Cc2ccc(O)cc2)C(=O)N[C@H](C(=O)N[C@@H](Cc2ccccc2)C(N)=O)C(C)C)NC(=O)[C@H](Cc2c[nH]c4ccccc24)NC(=O)[C@H](CCC(=O)O)NC(=O)[C@H](Cc2c[nH]cn2)NC(=O)[C@H]([C@@H](C)O)NC(=O)[C@H](CCCNC(=N)N)NC(=O)[C@H](CO)NC3=O)NC(=O)[C@H](CCCCN)NC(=O)[C@H](CC(=O)O)NC(=O)[C@H](CC(N)=O)NC(=O)[C@H](CC(=O)O)NC(=O)[C@@H]2CCCN2C1=O", "note": "[compound 691]", "values": [
      {"measurement": "IC50", "setting": "[1]; IonWorks Quattro, use-dependent protocol, hNav1.5, read-out: IWQ Use Nav1.5", "result": "> 5", "unit": "µM"}
    ]},
    {"compound": "CC[C@H](C)[C@@H]1NC(=O)[C@@H]2CSSC[C@@H]3NC(=O)[C@H](C(C)C)NC(=O)[C@H](CC(C)C)NC(=O)[C@H](CC(N)=O)NC(=O)[C@@H]4CCCN4C(=O)[C@H](CCCNC(=N)N)NC(=O)[C@H](CSSC[C@H](NC(=O)[C@@H](N)CC(=O)O)C(=O)N[C@@H](CC(C)C)C(=O)NCC(=O)N[C@H](Cc4ccccc4)C(=O)N[C@@H](CCSC)C(=O)N[C@@H](CCCNC(=N)N)C(=O)N[C@@H](CCCCN)C(=O)N2)NC(=O)[C@H](CSSC[C@@H](C(=O)N[C@@H](CCCCN)C(=O)N[C@@H](Cc2ccc(O)cc2)C(=O)N[C@H](C(=O)N[C@@H](Cc2ccccc2)C(N)=O)C(C)C)NC(=O)[C@H](Cc2c[nH]c4ccccc24)NC(=O)[C@H](CCCCN)NC(=O)[C@H](Cc2c[nH]cn2)NC(=O)[C@H]([C@@H](C)O)NC(=O)[C@H](CCCNC(=N)N)NC(=O)[C@H](CO)NC3=O)NC(=O)[C@H](CCCCN)NC(=O)[C@H](CC(=O)O)NC(=O)[C@H](CC(N)=O)NC(=O)[C@H](CC(=O)O)NC(=O)[C@@H]2CCCN2C1=O", "note": "[SEQ ID NO: 273]", "values": [
      {"measurement": "IC50", "setting": "[1]; IWQ Use Nav1.5", "result": "> 5", "unit": "µM"}
    ]}
  ]
}
